{"source": "patent EP3072528B1", "about": "“COMPOSITION COMPRISING VEMURAFENIB AND CATIONIC COPOLYMER BASED ON METHACRYLATES” (ratiopharm GmbH, priority 2015, dated 2016)", "origin": "cited, not measured here", "conditions": "reported; BCS IV compound"}
{"smiles": "CCCS(=O)(=O)Nc1ccc(F)c(C(=O)c2c[nH]c3ncc(-c4ccc(Cl)cc4)cc23)c1F", "note": "[Vemurafenib base, N-(3-{[5-(4-chlorophenyl)-1H-pyrrolo[2,3-b]pyridin-3-yl]carbonyl}-2,4-difluorophenyl)propane-1-sulfonamide]", "values": [{"measurement": "solubility in aqueous and physiological solvents", "value": "practically insoluble"}]}
